The test system of this experiment is clathrin-dependent pathway or macro-pinocytosis pathway. Briefly: Effect of endocytosis pathway inhibitors on BTNP accumulation in response to TTFields. To be noted: specific inhibitors of clathrin-dependent or macro-pinocytosis pathway. In kind it is cell-based.

The values below come from US12458709B2, “Compositions and methods for imaging a cell” (NOVOCURE GMBH, priority 2019, dated 2025).

Each structure is given as a SMILES string.

Regarding `CN(C)CCCN1c2ccccc2Sc2ccc(Cl)cc21` [chlorpromazine], the “effect on accumulation of BTNPs in cytoplasm in response to TTFields” value (shortened to “effect on accumulation of BTNPs”) is given as “did not modulate”.

Regarding `C=C1[C@@H](C)[C@H]2[C@H](Cc3ccccc3)NC(=O)[C@]23[C@H](OC(C)=O)/C=C/[C@@](C)(O)C(=O)[C@@H](C)C/C=C/[C@H]3[C@@H]1O` [cytochalasin D], the “effect on accumulation of BTNPs” value is recorded as “did not modulate”.

Regarding `N=C(N)NC(=O)c1nc(Cl)c(N)nc1N` [amiloride], the “effect on accumulation of BTNPs” value is recorded as “did not modulate”.
